Assay results reported in PMC10282093, “Structural basis of α1A-adrenergic receptor activation and recognition by an extracellular nanobody” (Nature Communications, 2023).
Values joined by “and” are separate entries in the source; they are usually repeats but may differ in a detail not shown here. Equal values may be shown once.

Key:
HEK293T cells (mock) = assay: Glo-sensor cAMP assay, mock (negative control); format: cell-based
Method: In brief, […] plasmid, receptor plasmid, and Gsq plasmid were transfected into HEK293T cells. At 24 h after transfection, the cells were switched into a CO2-Independent Medium (Gibco) and incubated with GloSensor^TM cAMP reagent. The mixture was then transferred to a 96-well white plate. The 96-well plate is placed at 37 °C in the dark for 1 h, then placed at room temperature in the dark for 1 h before use. […] The result curves were calculated and fitted by GraphPad Prism 9.

α1AAR [1] = molecular target: T1, α1AAR (Homo sapiens, UniProt P35348); assay: [3H]prazosin radioligand binding, Sf9 membranes
T1 sequence (P35348 1-370): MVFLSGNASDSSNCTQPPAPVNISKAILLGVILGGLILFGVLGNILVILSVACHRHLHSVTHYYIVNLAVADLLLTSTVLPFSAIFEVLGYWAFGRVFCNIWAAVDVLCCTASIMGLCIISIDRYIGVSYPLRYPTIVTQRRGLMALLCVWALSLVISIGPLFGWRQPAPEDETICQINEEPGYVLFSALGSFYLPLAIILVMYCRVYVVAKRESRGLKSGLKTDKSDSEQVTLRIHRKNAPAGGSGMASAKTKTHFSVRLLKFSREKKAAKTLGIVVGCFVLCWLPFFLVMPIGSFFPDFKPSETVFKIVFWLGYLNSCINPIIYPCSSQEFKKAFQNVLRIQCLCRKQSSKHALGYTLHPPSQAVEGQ
Method: (§1) After centrifugation, the pellet was homogenized in binding buffer and used as the membrane fraction in binding assays. […] Receptors were incubated for 1 h at room temperature with various concentrations of ligand in a total volume of 100 µl. After the reaction, the mixture was trapped on Whatman GF/B glass filters. Bound and free radioligands were separated by washing with ice-cold binding buffer. Radioactivity was measured on a MicroBeta2 liquid scintillation counter (PerkinElmer).

α1DAR = molecular target: T2, α1DAR (Homo sapiens, UniProt P25100); assay: [3H]prazosin radioligand competition binding, Sf9 membranes; conditions: 1 h
T2 construct: made in house; host or cells: Sf9 insect cells (membranes)
T2 sequence (P25100 1-572): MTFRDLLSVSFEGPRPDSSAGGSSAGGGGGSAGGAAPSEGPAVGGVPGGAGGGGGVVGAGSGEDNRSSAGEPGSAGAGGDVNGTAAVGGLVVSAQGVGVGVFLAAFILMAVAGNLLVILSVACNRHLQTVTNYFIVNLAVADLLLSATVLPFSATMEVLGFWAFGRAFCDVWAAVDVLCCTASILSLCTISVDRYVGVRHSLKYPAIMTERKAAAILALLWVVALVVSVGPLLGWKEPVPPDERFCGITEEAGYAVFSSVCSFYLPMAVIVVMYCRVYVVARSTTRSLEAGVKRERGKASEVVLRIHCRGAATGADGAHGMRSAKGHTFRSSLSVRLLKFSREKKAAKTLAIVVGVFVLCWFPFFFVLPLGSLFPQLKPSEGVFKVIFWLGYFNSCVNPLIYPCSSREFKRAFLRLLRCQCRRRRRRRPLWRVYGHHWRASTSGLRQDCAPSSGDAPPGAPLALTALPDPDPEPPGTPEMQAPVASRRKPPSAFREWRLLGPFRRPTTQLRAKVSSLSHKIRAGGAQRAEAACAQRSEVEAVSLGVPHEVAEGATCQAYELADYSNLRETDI
Method: as §1

α1AAR [2] = molecular target: T3, α1AAR (Homo sapiens, UniProt P35348); assay: Glo-sensor cAMP signaling assay with engineered Gsq protein in HEK293T cells; conditions: HEK-293T
T3 sequence (P35348 1-466): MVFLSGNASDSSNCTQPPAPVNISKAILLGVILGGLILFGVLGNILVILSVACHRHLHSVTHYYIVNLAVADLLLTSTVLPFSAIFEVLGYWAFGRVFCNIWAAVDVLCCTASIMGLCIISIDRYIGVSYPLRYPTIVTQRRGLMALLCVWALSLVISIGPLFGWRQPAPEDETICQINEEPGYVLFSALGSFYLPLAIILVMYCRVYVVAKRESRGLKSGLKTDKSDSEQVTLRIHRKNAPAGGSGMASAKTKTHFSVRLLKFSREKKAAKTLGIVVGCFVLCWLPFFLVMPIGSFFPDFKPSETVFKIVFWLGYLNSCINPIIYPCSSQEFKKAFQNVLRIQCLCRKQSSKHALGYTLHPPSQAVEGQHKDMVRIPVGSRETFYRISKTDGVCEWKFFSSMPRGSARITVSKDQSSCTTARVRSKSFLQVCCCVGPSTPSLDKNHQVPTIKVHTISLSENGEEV
Method: In brief, pGloSensor™−22F plasmid, receptor plasmid, and Gsq plasmid were transfected into HEK293T cells. At 24 h after transfection, the cells were switched into a CO2-Independent Medium (Gibco) and incubated with GloSensor^TM cAMP reagent. The mixture was then transferred to a 96-well white plate. The 96-well plate is placed at 37 °C in the dark for 1 h, then placed at room temperature in the dark for 1 h before use. […] The result curves were calculated and fitted by GraphPad Prism 9.

α1ARs over α2ARs = conditions: cited from earlier work

## Cc1cc(C(C)(C)C)c(O)c(C)c1CC1=NCCN1 [Oxymetazoline, oxymetazoline]
HEK293T cells (mock); Oxy Log[M] -4, listed as Oxy
  cAMP Glo-sensor signal (Noradrenaline %): 20.5576% and 21.072% and 20.3482%
HEK293T cells (mock); Oxy Log[M] -5, listed as Oxy
  cAMP Glo-sensor signal (Noradrenaline %): 16.9742% and 18.9752% and 17.0682%
HEK293T cells (mock); Oxy Log[M] -6, listed as Oxy
  cAMP Glo-sensor signal (Noradrenaline %): 11.7764% and 12.3973% and 9.944%
HEK293T cells (mock); Oxy Log[M] -7, listed as Oxy
  cAMP Glo-sensor signal (Noradrenaline %): 5.984% and 4.961% and 5.326%
HEK293T cells (mock); Oxy Log[M] -8, listed as Oxy
  cAMP Glo-sensor signal (Noradrenaline %): 5.537% and 5.0478% and 4.209%
HEK293T cells (mock); Oxy Log[M] -9, listed as Oxy
  cAMP Glo-sensor signal (Noradrenaline %): 5.27% and 4.932% and 5.142%
HEK293T cells (mock); Oxy Log[M] -10, listed as Oxy
  cAMP Glo-sensor signal (Noradrenaline %): 5.3547% and 4.562% and 4.147%
HEK293T cells (mock); Oxy Log[M] -11, listed as Oxy
  cAMP Glo-sensor signal (Noradrenaline %): 5.371% and 4.924% and 4.109%
α1AAR [1]; Fig 1c, oxymetazoline Log[M] -4
  [3H]prazosin binding: 10.9281% and 8.737% and 2.765%
α1AAR [1]; Fig 1c, oxymetazoline Log[M] -5
  [3H]prazosin binding: 28.5329% and 15.8053% and 21.6214%
α1AAR [1]; Fig 1c, oxymetazoline Log[M] -6
  [3H]prazosin binding: 48.3547% and 40.7911% and 47.5462%
α1AAR [1]; Fig 1c, oxymetazoline Log[M] -7
  [3H]prazosin binding: 71.541% and 85.4423% and 88.1547%
α1AAR [1]; Fig 1c, oxymetazoline Log[M] -8
  [3H]prazosin binding: 80.5129% and 95.3793% and 78.3743%
α1AAR [1]; Fig 1c, oxymetazoline Log[M] -9
  [3H]prazosin binding: 85.0772% and 90.4238% and 92.4582%
α1AAR [1]; Fig 1c, oxymetazoline Log[M] -10
  [3H]prazosin binding: 89.85% and 99.1089% and 88.2591%
α1AAR [1]; SupFig 3a, oxymetazoline Log[M] -4
  [3H]prazosin binding: 12.1047% and 12.5905% and 4.0484%
α1AAR [1]; SupFig 3a, oxymetazoline Log[M] -5
  [3H]prazosin binding: 17.0033% and 16.477% and 26.9623%
α1AAR [1]; SupFig 3a, oxymetazoline Log[M] -6
  [3H]prazosin binding: 53.0745% and 43.3179% and 35.5045%
α1AAR [1]; SupFig 3a, oxymetazoline Log[M] -7
  [3H]prazosin binding: 77.4054% and 89.6316% and 82.5874%
α1AAR [1]; SupFig 3a, oxymetazoline Log[M] -8
  [3H]prazosin binding: 97.364% and 96.109% and 85.3403%
α1AAR [1]; SupFig 3a, oxymetazoline Log[M] -9
  [3H]prazosin binding: 100.805% and 102.506% and 100.765%
α1AAR [1]; SupFig 3a, oxymetazoline Log[M] -10
  [3H]prazosin binding: 92.5464% and 102.06% and 94.2468%
α1AAR [1]; SupFig 3a, oxymetazoline Log[M] -11
  [3H]prazosin binding: 99.0644% and 106.675% and 101.331%
α1AAR [1]; SupFig 5b, Oxy Log[M] -4, listed as Oxy
  [3H]prazosin binding: 3.711% and 5.398% and 5.024%
α1AAR [1]; SupFig 5b, Oxy Log[M] -5, listed as Oxy
  [3H]prazosin binding: 10.3036% and 9.182% and 6.784%
α1AAR [1]; SupFig 5b, Oxy Log[M] -6, listed as Oxy
  [3H]prazosin binding: 25.9506% and 41.5063% and 33.8379%
α1AAR [1]; SupFig 5b, Oxy Log[M] -7, listed as Oxy
  [3H]prazosin binding: 92.3589% and 77.9429% and 95.5776%
α1AAR [1]; SupFig 5b, Oxy Log[M] -8, listed as Oxy
  [3H]prazosin binding: 101.851% and 78.107% and 77.5873%
α1AAR [1]; SupFig 5b, Oxy Log[M] -9, listed as Oxy
  [3H]prazosin binding: 102.225% and 74.633% and 114.735%
α1AAR [1]; SupFig 5b, Oxy Log[M] -10, listed as Oxy
  [3H]prazosin binding: 96.3983% and 104.267% and 110.313%
α1AAR [1]; SupFig 5b, Oxy Log[M] -11, listed as Oxy
  [3H]prazosin binding: 110.176% and 107.431% and 115.738%
α1AAR [1]; oxymetazoline Log[M] -4, + 5 μM Nb29
  [3H]prazosin binding: 2.395% and 8.488% and 7.551%
α1AAR [1]; oxymetazoline Log[M] -5, + 5 μM Nb29
  [3H]prazosin binding: 13.6695% and 16.4815% and 14.4506%
α1AAR [1]; oxymetazoline Log[M] -6, + 5 μM Nb29
  [3H]prazosin binding: 33.0932% and 34.9679% and 29.0314%
α1AAR [1]; oxymetazoline Log[M] -7, + 5 μM Nb29
  [3H]prazosin binding: 67.0717% and 63.0359% and 61.005%
α1AAR [1]; oxymetazoline Log[M] -8, + 5 μM Nb29
  [3H]prazosin binding: 88.2659% and 86.6777% and 81.6265%
α1AAR [1]; oxymetazoline Log[M] -9, + 5 μM Nb29
  [3H]prazosin binding: 85.0373% and 101.154% and 98.9412%
α1AAR [1]; oxymetazoline Log[M] -10, + 5 μM Nb29
  [3H]prazosin binding: 98.863% and 104.175% and 100.087%
α1DAR; oxymetazoline Log[M] -4
  remaining binding at 100 µM: 40%
α1DAR; oxymetazoline Log[M] -5
  remaining binding at 10 µM: 78%
α1DAR; oxymetazoline Log[M] -6
  remaining binding at 1 µM: 104%
α1DAR; oxymetazoline Log[M] -8
  remaining binding at 0.01 µM: 101%
α1DAR; oxymetazoline Log[M] -9
  remaining binding at 0.001 µM: 85.5%
α1DAR; oxymetazoline Log[M] -10
  remaining binding at 0.0001 µM: 96.6%
α1AAR [2]; read-out: α1AAR activation (Noradrenaline %), Oxy Log[M] -4
  activation at 100 µM: 79.5%
α1AAR [2]; read-out: α1AAR activation (Noradrenaline %), Oxy Log[M] -5
  activation at 10 µM: 82.8%
α1AAR [2]; read-out: α1AAR activation (Noradrenaline %), Oxy Log[M] -6
  activation at 1 µM: 89.5%
α1AAR [2]; read-out: α1AAR activation (Noradrenaline %), Oxy Log[M] -7
  activation at 0.1 µM: 76.5%
α1AAR [2]; read-out: α1AAR activation (Noradrenaline %), Oxy Log[M] -8
  activation at 0.01 µM: 64.3%
α1AAR [2]; read-out: α1AAR activation (Noradrenaline %), Oxy Log[M] -9
  activation at 0.001 µM: 30.7%

## (+)-cyclazosin
α1ARs over α2ARs
  selectivity for α1ARs over α2ARs: 100–1000 fold
  subtype preference among α1ARs: slight preference for α1BAR over α1AAR
